Measured values from the NIST ThermoML archive (doi:10.1016/j.fluid.2018.11.011).
± gives the expanded uncertainty stated by the source.

Test: activity coefficient (dimensionless); of the first substance listed, at infinite dilution; xn = mol fraction of the nth substance listed
Conditions: 101.33 kPa, Liquid, Chromatography, x1 = 0

| Compound | activity coefficient (308 K) | activity coefficient (323 K) | activity coefficient (338 K) | activity coefficient (353 K) |
| --- | --- | --- | --- | --- |
| C=CCCCCCC [oct-1-ene] + CCCCCCCCCC[N+](C)(C)CCCCCCCCCC.[O-][Cl+3]([O-])([O-])[O-] | 1.1 ± 0.11 | 0.999 ± 0.1 | 1.04 ± 0.11 | 0.938 ± 0.096 |
| CCCCCCCC [octane] + CCCCCCCCCC[N+](C)(C)CCCCCCCCCC.F[B-](F)(F)F | 4.41 ± 0.46 | 3.71 ± 0.39 | 3.13 ± 0.33 | 2.89 ± 0.3 |
| CCCCCCCC [octane] + CCCCCCCCCC[N+](C)(C)CCCCCCCCCC.[O-][Cl+3]([O-])([O-])[O-] | 3.98 ± 0.42 | 3.69 ± 0.39 | 3.42 ± 0.36 | 3.16 ± 0.33 |
| CCCCC [pentane] + CCCCCCCCCC[N+](C)(C)CCCCCCCCCC.F[B-](F)(F)F | 1.85 ± 0.19 | 1.51 ± 0.16 | 1.24 ± 0.13 | 1.08 ± 0.11 |
| CCCCC [pentane] + CCCCCCCCCC[N+](C)(C)CCCCCCCCCC.[O-][Cl+3]([O-])([O-])[O-] | 1.77 ± 0.18 | 1.59 ± 0.17 | 1.44 ± 0.15 | 1.28 ± 0.13 |
| CC(C)O [propan-2-ol] + CCCCCCCCCC[N+](C)(C)CCCCCCCCCC.F[B-](F)(F)F |  | 3.47 ± 0.37 | 2.41 ± 0.25 | 1.9 ± 0.2 |
| CC(C)O [propan-2-ol] + CCCCCCCCCC[N+](C)(C)CCCCCCCCCC.[O-][Cl+3]([O-])([O-])[O-] |  | 1.5 ± 0.16 | 1.54 ± 0.16 | 1.11 ± 0.11 |
| C1CCOC1 [tetrahydrofuran] + CCCCCCCCCC[N+](C)(C)CCCCCCCCCC.F[B-](F)(F)F |  | 0.662 ± 0.07 | 0.619 ± 0.066 | 0.695 ± 0.073 |
| C1CCOC1 [tetrahydrofuran] + CCCCCCCCCC[N+](C)(C)CCCCCCCCCC.[O-][Cl+3]([O-])([O-])[O-] |  | 0.478 ± 0.053 | 0.46 ± 0.052 | 0.536 ± 0.058 |
| ClC(Cl)Cl [trichloromethane] + CCCCCCCCCC[N+](C)(C)CCCCCCCCCC.F[B-](F)(F)F |  | 0.318 ± 0.04 | 0.346 ± 0.042 | 0.399 ± 0.047 |
| ClC(Cl)Cl [trichloromethane] + CCCCCCCCCC[N+](C)(C)CCCCCCCCCC.[O-][Cl+3]([O-])([O-])[O-] |  | 0.224 ± 0.034 | 0.29 ± 0.038 | 0.302 ± 0.039 |
